Where two headings read alike, the source gives them in different places. Non-standard residues stand in square brackets, D forms with d. Residues, ends and D or L forms follow the SMILES beside them. ξ: configuration not given here. *: point of attachment. ξR = N=C(N)NCCCC(N)C(=O)O; βNA = c1ccc2cc(N*)ccc2c1
Experiments:
[1] = tested on: S. aureus NorA-, wild type, and NorA+; experiment: Photodynamic inactivation (PDI), light-dose dependent phototoxicity; type: cell-based, Staphylococcus aureus; details: 10 μM; for light dose by which strain is eliminated: NorA knockout strain, 635-nm light 100 mWcm^-2; for light dose by which strain is eliminated / logs of killing: 30 min; for logs less killing than wild-type: NorA overexpression strain, 635-nm light; for overall order of efficiency of killing: S. aureus NorA strains; for logs less killing compared to wild-type: NorA overexpressing strain; for logs of killing: wild-type strain
Procedure: (§1) A polylysine-chlorine6 conjugate (pL-ce6), and Rose Bengal (RB) (Sigma-Aldrich) were used as non-phenothiazinium-based PS (FIG. 3). Stock solutions were prepared in water at a concentration of 2-mM and stored for a maximum of 2 weeks at 4° C. in the dark before use. Spectra of stock solutions diluted 140-280 fold in methanol were recorded on an UV-visible spectroscopy system (Waldbronn, Germany). A non-coherent light source with interchangeable fiber bundles (LC122, LumaCare, London, UK) was employed. Thirty-nm band pass filters at ranges 540±15 nm for RB, 635±15 nm for TBO, and DMMB, and 660±15 nm for MB and pLce6 were used. The total power output provided out of the fiber bundle ranged from 300-700 mW. The spot was arranged to give an irradiance of 100 mW/cm^2.
(§2) Bacterial suspensions in PBS (initial concentration 10^8 cells mL^−1) were incubated with PS in the dark at room temperature for 30 minutes at concentrations varying from 1-μM to 300-μM. The cell suspensions were centrifuged at 12000 rpm and then washed twice with sterile PBS. The bacterial suspensions were placed in wells of 96 well micro titer plates (Fisher Scientific) and illuminated with appropriate light at room temperature. Fluences ranged from 0 to 20 Jcm^−2 at a fluence rate of 100 mWcm^−2. During illumination, aliquots of […] were taken to determine the colony-forming units. The contents of the wells were mixed before sampling. The aliquots were serially diluted 10-fold in PBS to give dilutions of 10^−1-10^−6 times the original concentrations and were streaked horizontally on square BHI agar plates as described by Jett et al (1997). This allowed a maximum of seven logs of killing to be measured. Plates were incubated at 37° C. overnight. Two types of control conditions were used: illumination in the absence of photosensitizer and incubation with photosensitizer in the dark.
The three isogenic strains of S. aureus were incubated with 10 μM MB for 30 minutes and then washed free of unbound dye by centrifugation and resuspension in PBS and illuminated with 100 mWcm^−2 660-nm light, and the survival fractions determined as described above.
To establish the recognition of phenothiazinium dyes as a class by NorA, the experiments described in FIG. 4 were repeated with the phenothiazinium compounds TBO and DMMB. Incubation with the photosensitizer was for 30 min followed by a wash. Bacteria were then illuminated with 100 mWcm^−2 635-nm light for both TBO and DMMB. The results shown in FIGS. 7a and 7b show a similar pattern to the susceptibilities as was found for MB. The NorA knockout strain is eliminated by 1 J/cm2 in the case of TBO and by 0.5 J/cm2 in the case of DMMB. […]

[2] = tested on: E. coli wild type and TolC-; type: cell-based, Escherichia coli
Procedure: as §1, §2
It was necessary to use higher overall PDI doses to kill the Gram-negative E. coli compared to the Gram-positive S. aureus. A concentration of MB of 50 μM was selected with the same 30-minute incubation and wash by centrifugation, together with light doses up to 20 J/cm^2.

[3] = tested on: P. aeruginosa MexAB-, wild type and MexAB+; type: cell-based, Pseudomonas aeruginosa; details: wild-type strain; 300 μM; after 20 J/cm2
Procedure: A polylysine-chlorine6 conjugate (pL-ce6), and Rose Bengal (RB) (Sigma-Aldrich) were used as non-phenothiazinium-based PS (FIG. 3). Stock solutions were prepared in water at a concentration of 2-mM and stored for a maximum of 2 weeks at 4° C. in the dark before use. Spectra of stock solutions diluted 140-280 fold in methanol were recorded on an UV-visible spectroscopy system (Waldbronn, Germany). A non-coherent light source with interchangeable fiber bundles (LC122, LumaCare, London, UK) was employed. […] The total power output provided out of the fiber bundle ranged from 300-700 mW. The spot was arranged to give an irradiance of 100 mW/cm^2.
Bacterial suspensions in PBS (initial concentration 10^8 cells mL^−1) were incubated with PS in the dark at room temperature for 30 minutes at concentrations varying from 1-μM to 300-μM. The cell suspensions were centrifuged at 12000 rpm and then washed twice with sterile PBS. The bacterial suspensions were placed in wells of 96 well micro titer plates (Fisher Scientific) and illuminated with appropriate light at room temperature. Fluences ranged from 0 to 20 Jcm^−2 at a fluence rate of 100 mWcm^−2. During illumination, aliquots of 10 were taken to determine the colony-forming units. The contents of the wells were mixed before sampling. […] This allowed a maximum of seven logs of killing to be measured. […]

P. aeruginosa PAO1 = type: cell-based, Pseudomonas aeruginosa; details: inhibitor 10 ug/ml with TBO 250 μM, 30 min, wash; 660-nm light 100 mWcm^-2

Cc1cc(N(C)C)cc2[s+]c3cc(N(C)C)cc(C)c3nc12 [DMMB, 1,9-dimethylmethylene blue]
light dose by which strain is eliminated ([1]; wash): ≤ 0.5 J/cm2
logs less killing than wild-type [1]: roughly 2 logs
overall order of efficiency of killing [1]: DMMB>TBO>MB

CN(C)c1ccc2nc3ccc(=[N+](C)C)cc-3sc2c1 [MB, methylene blue]
logs more killing than wild-type ([2]; TolC knock-out mutant, 50 μM, 30 min, wash, at 5 J/cm^2): 2 logs
logs more killing than wild-type ([2]; TolC knock-out mutant, 50 μM, at 10 J/cm^2): three
killing ([2]; TolC knock-out mutant, 50 μM, light doses higher than 10 J/cm^2 (up to 20 J/cm^2)): totally eliminated
killing ([2]; TolC knock-out, 250 μM, after 20 J/cm^2 (data not shown)): totally eliminated
killing ([2]; wild-type, 250 μM, after 20 J/cm^2 (data not shown)): totally eliminated
killing ([1]; NorA knock-out, 660-nm light, after 1 J/cm^2): complete killing
logs less killing compared to wild-type ([1]; 660-nm light, at 1 J/cm^2): 1 log
logs less killing compared to wild-type ([1]; 660-nm light, at 2 J/cm^2): 2 logs
logs less killing compared to wild-type ([1]; 660-nm light, at 4 J/cm^2): 3 logs
logs of killing ([1]; wash, 660-nm light 100 mWcm^-2, after 1 J/cm^2): 3 logs
logs of killing ([1]; wash, 660-nm light, after 2 J/cm^2): 5 logs
logs of killing ([1]; wash, 660-nm light, after 4 J/cm^2): 7 logs
logs of killing [3]: 5 logs

NC(N)=NCCCC(NC(=O)[C@@H](N)Cc1ccccc1)C(=O)Nc1ccc2ccccc2c1 (stereo partly drawn) [MC207110] (H-Phe-[ξR]-βNA)
logs of killing (P. aeruginosa PAO1): 5 logs

O=C1OC2(c3cc(I)c(O)c(I)c3Oc3c2cc(I)c(O)c3I)c2c(Cl)c(Cl)c(Cl)c(Cl)c21 [RB, Rose Bengal]
differences in killing between the three NorA phenotypes ([1]; wash, 540-nm light 100 mWcm^-2): no differences in killing

Cc1cc2nc3ccc(N(C)C)cc3[s+]c2cc1N.[Cl-] [TBO, Toluidine blue O]
light dose by which strain is eliminated ([1]; wash): ≤ 1 J/cm2
logs less killing than wild-type [1]: roughly 2 logs
overall order of efficiency of killing [1]: DMMB>TBO>MB

— US20130115133A1, “INACTIVATION OF MICROORGANISMS WITH MULTIDRUG RESISTANCE INHIBITORS AND PHENOTHIAZINIUMS” (priority 2004, published 2013)
